Measured values taken from ChEMBL document CHEMBL4385620, “Inhibition of polypeptide N-acetyl-α-galactosaminyltransferases is an underlying mechanism of dietary polyphenols preventing colorectal tumorigenesis” (Bioorg Med Chem, 2019).
Active and inactive are the calls of the source.

Tests used:
[1] = biological target: T1, Polypeptide N-acetylgalactosaminyltransferase 2 (Homo sapiens, UniProt Q10471); assay: Inhibition of catalytic activity of human recombinant FLAG-tagged ppGalNAcT2 expressed in HEK293T cells and using 5-FAM labelled-EA2 peptide as substrate incubated for 30 mins by HPLC-based enzyme assay
[2] = biological target: T1, Polypeptide N-acetylgalactosaminyltransferase 2; assay: Binding affinity of human recombinant FLAG-tagged ppGalNAcT2 expressed in HEK293 cells assessed as dissociation constant by SPR analysis
[3] = biological target: T1, Polypeptide N-acetylgalactosaminyltransferase 2; assay: Binding affinity of human recombinant FLAG-tagged ppGalNAcT2 expressed in HEK293 cells assessed as association rate by SPR analysis
[4] = biological target: T1, Polypeptide N-acetylgalactosaminyltransferase 2; assay: Non-competitive inhibition of human recombinant FLAG-tagged ppGalNAcT2 expressed in HEK293 cells using UDP-GalNAc as substrate by HPLC-based enzyme assay
[5] = biological target: T2, Polypeptide N-acetylgalactosaminyltransferase 10 (Homo sapiens, UniProt Q86SR1); assay: Inhibition of catalytic activity of ppGalNAcT10 (unknown origin) using EA2 peptide as substrate incubated for 30 mins by HPLC-based enzyme assay
T2 sequence (Q86SR1 whole entry): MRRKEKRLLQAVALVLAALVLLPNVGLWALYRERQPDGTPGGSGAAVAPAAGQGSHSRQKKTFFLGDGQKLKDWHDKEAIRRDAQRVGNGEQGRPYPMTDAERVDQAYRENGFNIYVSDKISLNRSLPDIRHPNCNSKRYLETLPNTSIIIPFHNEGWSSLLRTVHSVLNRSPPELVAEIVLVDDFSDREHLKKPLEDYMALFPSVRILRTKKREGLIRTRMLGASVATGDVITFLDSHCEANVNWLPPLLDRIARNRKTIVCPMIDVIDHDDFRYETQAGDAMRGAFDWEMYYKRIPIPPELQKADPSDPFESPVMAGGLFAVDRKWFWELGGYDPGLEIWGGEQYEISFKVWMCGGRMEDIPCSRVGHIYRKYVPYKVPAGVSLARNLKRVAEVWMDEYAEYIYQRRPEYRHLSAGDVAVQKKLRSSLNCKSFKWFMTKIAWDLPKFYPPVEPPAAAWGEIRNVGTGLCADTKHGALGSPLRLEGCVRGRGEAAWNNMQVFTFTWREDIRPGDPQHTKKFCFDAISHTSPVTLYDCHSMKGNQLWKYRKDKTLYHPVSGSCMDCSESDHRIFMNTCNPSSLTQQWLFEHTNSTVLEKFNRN

[6] = biological target: T1, Polypeptide N-acetylgalactosaminyltransferase 2; assay: Inhibition of catalytic activity of human recombinant FLAG-tagged ppGalNAcT2 using Muc2 peptide as substrate incubated for 30 mins by HPLC-based enzyme assay
[7] = biological target: T1, Polypeptide N-acetylgalactosaminyltransferase 2; assay: Inhibition of catalytic activity of human recombinant FLAG-tagged ppGalNAcT2 using Muc7 peptide as substrate incubated for 30 mins by HPLC-based enzyme assay
[8] = biological target: Polypeptide N-acetylgalactosaminyltransferase 2 (Homo sapiens, UniProt Q10471, W282A); assay: Inhibition of catalytic activity of human recombinant FLAG-tagged ppGalNAcT2 W282A mutant expressed in HEK293 cells using EA2 peptide as substrate by HPLC-based enzyme assay
[9] = biological target: T1, Polypeptide N-acetylgalactosaminyltransferase 2; assay: Inhibition of ppGalNAcT2 in human HT-29 cells assessed as reduction in O-GalNAc glycans by measuring VVA lectin expression at 20 to 60 uM incubated for 48 hrs by Western blot analysis; type: cell-based
HT-29 [10] = assay: Effect on ppGalNAcT2 expression level in human HT-29 cells at 40 uM incubated for 48 hrs by Q-PCR analysis; type: ADME, cell-based; settings: ht-29, 48 h
HT-29 [11] = assay: Effect on ppGalNAcT3 expression level in human HT-29 cells at 40 uM incubated for 48 hrs by Q-PCR analysis; type: ADME, cell-based; settings: ht-29, 48 h
HT-29 [12] = assay: Effect on ppGalNAcT4 expression level in human HT-29 cells at 40 uM incubated for 48 hrs by Q-PCR analysis; type: ADME, cell-based; settings: ht-29, 48 h
HT-29 [13] = assay: Effect on ppGalNAcT5 expression level in human HT-29 cells at 40 uM incubated for 48 hrs by Q-PCR analysis; type: ADME, cell-based; settings: ht-29, 48 h
HT-29 [14] = assay: Effect on ppGalNAcT6 expression level in human HT-29 cells at 40 uM incubated for 48 hrs by Q-PCR analysis; type: ADME, cell-based; settings: ht-29, 48 h
HT-29 [15] = assay: Effect on ppGalNAcT7 expression level in human HT-29 cells at 40 uM incubated for 48 hrs by Q-PCR analysis; type: ADME, cell-based; settings: ht-29, 48 h
HT-29 [16] = assay: Effect on ppGalNAcT10 expression level in human HT-29 cells at 40 uM incubated for 48 hrs by Q-PCR analysis; type: ADME, cell-based; settings: ht-29, 48 h
HT-29 [17] = assay: Effect on ppGalNAcT11 expression level in human HT-29 cells at 40 uM incubated for 48 hrs by Q-PCR analysis; type: ADME, cell-based; settings: ht-29, 48 h
HT-29 [18] = assay: Effect on ppGalNAcT12 expression level in human HT-29 cells at 40 uM incubated for 48 hrs by Q-PCR analysis; type: ADME, cell-based; settings: ht-29, 48 h
HT-29 [19] = assay: Effect on ppGalNAcT13 expression level in human HT-29 cells at 40 uM incubated for 48 hrs by Q-PCR analysis; type: ADME, cell-based; settings: ht-29, 48 h
HT-29 [20] = assay: Effect on ppGalNAcT14 expression level in human HT-29 cells at 40 uM incubated for 48 hrs by Q-PCR analysis; type: ADME, cell-based; settings: ht-29, 48 h
Cricetulus griseus = species: Cricetulus griseus; assay: Inhibition of ppGalNAcT2 in Chinese hamster ldlD cells assessed as reduction in O-GalNAc glycosylation by measuring metabolic labelled-GalNAz signal at 40 uM incubated for 48 hrs by click chemistry assay; type: cell-based
[21] = biological target: T1, Polypeptide N-acetylgalactosaminyltransferase 2; assay: Inhibition of ppGalNAcT2 in human Jurkat cells assessed as reduction in O-GalNAc glycosylation by measuring VVA lectin expression at 40 uM incubated for 48 hrs by Western blot analysis; type: cell-based
[22] = biological target: T1, Polypeptide N-acetylgalactosaminyltransferase 2; assay: Inhibition of ppGalNAcT2 in human HCT116 cells assessed as reduction in O-GalNAc glycosylation by measuring VVA lectin expression at 40 uM incubated for 48 hrs by Western blot analysis; type: cell-based
HT-29 [23] = assay: Antimigratory activity in human HT-29 cells at 40 uM incubated for 48 hrs by crystal violet staining based method; type: functional, cell-based
HCT-116 [24] = assay: Antimigratory activity in human HCT116 cells at 40 uM incubated for 48 hrs by crystal violet staining based method; type: functional, cell-based
RKO = assay: Antimigratory activity in human RKO cells at 40 uM incubated for 48 hrs by crystal violet staining based method; type: functional, cell-based
HCT-116 [25] = assay: Anti-invasive activity in human HCT116 cells at 40 uM incubated for 48 hrs by crystal violet staining based method; type: functional, cell-based
HT-29 [26] = assay: Effect on PDPN expression level in human HT-29 cells at 40 uM incubated for 48 hrs by Q-PCR analysis; type: ADME, cell-based; settings: ht-29, 48 h
HT-29 [27] = assay: Effect on ppGalNAcT2 expression level in human HT-29 cells at 40 uM incubated for 48 hrs by Western blot analysis; type: ADME, cell-based; settings: ht-29, 48 h
HT-29 [28] = assay: Effect on ppGalNAcT4 expression level in human HT-29 cells at 40 uM incubated for 48 hrs by Western blot analysis; type: ADME, cell-based; settings: ht-29, 48 h

T1 sequence (Q10471 whole entry): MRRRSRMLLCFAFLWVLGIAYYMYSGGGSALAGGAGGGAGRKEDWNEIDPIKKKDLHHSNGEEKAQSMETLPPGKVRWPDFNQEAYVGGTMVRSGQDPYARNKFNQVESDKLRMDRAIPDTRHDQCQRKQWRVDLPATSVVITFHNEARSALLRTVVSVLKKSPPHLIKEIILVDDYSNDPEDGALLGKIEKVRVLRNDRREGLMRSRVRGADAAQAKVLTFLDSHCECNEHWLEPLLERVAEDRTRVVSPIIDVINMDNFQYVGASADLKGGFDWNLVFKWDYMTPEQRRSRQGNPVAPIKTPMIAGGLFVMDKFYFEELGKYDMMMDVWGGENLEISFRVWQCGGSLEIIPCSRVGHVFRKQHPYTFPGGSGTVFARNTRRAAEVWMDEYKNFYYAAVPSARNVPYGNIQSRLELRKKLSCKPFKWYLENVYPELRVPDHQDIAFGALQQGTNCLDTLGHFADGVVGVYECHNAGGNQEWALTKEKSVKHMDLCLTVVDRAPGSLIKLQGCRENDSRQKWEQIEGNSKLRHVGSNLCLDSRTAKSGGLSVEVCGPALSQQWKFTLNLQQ
Chain of Polypeptide N-acetylgalactosaminyltransferase 2 (Homo sapiens, UniProt Q10471, W282A) (Q10471 whole entry W282A): as the sequence (Q10471 whole entry) above, with W282A counted along it

O=c1oc2c(O)c(O)ccc2c2cc(O)c(O)cc12
Non-Toxic: Activity (HT-29 [10]) | Activity (HT-29 [11]) | Activity (HT-29 [12]) | Activity (HT-29 [13]) | Activity (HT-29 [14]) | Activity (HT-29 [15]) | Activity (HT-29 [16]) | Activity (HT-29 [17]) | Activity (HT-29 [18]) | Activity (HT-29 [19]) | Activity (HT-29 [20]) | Activity (HT-29 [26]) | Activity (HT-29 [27]) | Activity (HT-29 [28])
330 nM: IC50 [5]
3120 nM: IC50 [8]
3532 M⁻¹ s⁻¹: kon [3]
294 nM: Kd [2]
active: inhibition [9] | inhibition (Cricetulus griseus) | inhibition [21] | inhibition [22] | Activity (HT-29 [23]) | Activity (HCT-116 [24]) | Activity (RKO) | Activity (HCT-116 [25])
760 nM: IC50 [1]
1250 nM: IC50 [7]
1140 nM: IC50 [6]
6150 nM: Ki [4]
